From US12084462B2, “Spiro bicyclic inhibitors of menin-MLL interaction” (Janssen Pharmaceutica NV, priority 2016, dated 2024)
“And” between values parts separate entries of the source, which are not always exact repeats. Identical values can stand only once. Like-named read-outs stand apart in the source and are kept apart here.

Assays:
MV-4-11 = experiment: Proliferation assay (spheroid assay) MV-4-11; format: cell-based, human
Protocol: (§1) The anti-proliferative effect of menin/MLL protein/protein interaction inhibitor test compounds was assessed in human leukemia cell lines. The cell lines MV-4-11 and MOLM14 harbor MLL translocations and express the MLL fusion proteins MLL-AF4 and MLL-AF9, respectively, as well as the wildtype protein from the second allele. […] K562 and KG1 were used as a control cell lines containing two MLL wildtype alleles in order to exclude compounds that display general cytotoxic effects.
(§2) MV-4-11 and MOLM14 were cultured in RPMI-1640 (Sigma Aldrich) supplemented with 10% fetal bovine serum (HyClone), 2 mM L-glutamine (Sigma Aldrich) and 50 μg/ml gentamycin (Gibco). K562 were propagated in RPMI-1640 (Sigma Aldrich) supplemented with 20% fetal bovine serum (HyClone), 2 mM L-glutamine (Sigma Aldrich) and 50 μg/ml gentamycin (Gibco). KG1 were cultured in Iscove's MDM (Gibco) supplemented with 20% fetal bovine serum (HyClone), 2 mM L-glutamine (Sigma Aldrich) and 50 μg/ml gentamycin (Gibco).
(§3) In order to assess the anti-proliferative effects, 1,500 MV-4-11, 300 MOLM14, 750 K562 or 1,300 KG1 cells were seeded in 200 μl media per well in 96-well round bottom, ultra-low attachment plates (Costar, catalogue number 7007). Cell seeding numbers were chosen based on growth curves to ensure linear growth throughout the experiment. Test compounds were added at different concentrations and the DMSO content was normalized to 0.3%. Cells were incubated for 8 d at 37° C. and 5% CO2. Spheroid like growth was monitored in real-time by live-cell imaging (IncuCyteZOOM, Essenbio, 4× objective) acquiring one image every four hours for 8 d. Confluence (%) as a measure of spheroid size was determined using an integrated analysis tool.
(§4) In order to determine the cumulative effect of the test compounds over time, the area under the curve (AUC) in a plot of confluence against time was calculated. Confluence at the beginning of the experiment (t=0) was used as baseline for the AUC calculation.
(§5) Absolute IC50 values were calculated according to the following procedure: % Control=(AUC sample/AUC control)*100 AUC control=mean AUC of control values (cells without compound/DMSO as vehicle control)
(§6) A non-linear curve fit was applied using the least squares (ordinary) fit method to the plot of % control versus compound concentration. Based on this, the absolute IC50 value (half maximal inhibitory concentration of the test compound causing an anti-proliferative effect of 50% relative to the vehicle control) was calculated.

KG1 = experiment: Proliferation assay (spheroid assay) KG1, control cell line; format: cell-based; conditions: Homo sapiens, KG-1; KG1 control cell line; averaged values; read-out: Spheroid assay KG1 (IC50 (μM))
Protocol: as §1, §2, §3, §4, §5, §6

MOLM14 = experiment: Proliferation assay (spheroid assay) MOLM14; format: cell-based, human
Protocol: as §1, §2, §3, §4, §5, §6

K562 = experiment: Proliferation assay (spheroid assay) K562, control cell line; format: cell-based; conditions: Homo sapiens
Protocol: as §1, §2, §3, §4, §5, §6

menin = target: T1, menin (Homo sapiens, UniProt O00255, T541A); experiment: Menin/MLL fluorescence polarization (FP) assay; format: binding
T1 sequence (O00255 with tags, fused parts or gaps T541A): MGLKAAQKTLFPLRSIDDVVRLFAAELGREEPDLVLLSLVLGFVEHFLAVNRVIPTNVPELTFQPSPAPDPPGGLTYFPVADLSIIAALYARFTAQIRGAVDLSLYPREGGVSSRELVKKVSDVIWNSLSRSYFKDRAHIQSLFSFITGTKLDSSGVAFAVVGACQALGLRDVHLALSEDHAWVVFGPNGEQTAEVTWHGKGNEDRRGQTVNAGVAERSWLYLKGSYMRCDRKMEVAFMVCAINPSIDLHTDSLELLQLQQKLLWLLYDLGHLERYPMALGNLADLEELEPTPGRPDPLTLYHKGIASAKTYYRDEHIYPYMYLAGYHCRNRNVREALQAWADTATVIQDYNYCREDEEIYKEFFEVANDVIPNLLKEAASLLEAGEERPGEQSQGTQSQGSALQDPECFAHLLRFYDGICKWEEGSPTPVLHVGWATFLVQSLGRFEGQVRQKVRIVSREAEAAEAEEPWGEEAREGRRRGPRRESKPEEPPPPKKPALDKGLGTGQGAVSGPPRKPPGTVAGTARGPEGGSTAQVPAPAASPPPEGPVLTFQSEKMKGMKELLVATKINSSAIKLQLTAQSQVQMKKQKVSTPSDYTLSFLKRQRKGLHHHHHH
Protocol: 1) Menin/MLL Fluorescence Polarization Assay
To a non-surface binding, black 384-well microtiter plate was added 50 nL 160× test compound in DMSO and 4 μL 2× menin in assay buffer (40 mM Tris·HCl, pH 7.5, 50 mM NaCl, 1 mM DTT and 0.001% Tween 20). After incubation of test compound and menin for 10 min at ambient temperature, 4 μL 2×FITC-MBM1 peptide (FITC-β-alanine-SARWRFPARPGT-NH2 (SEQ ID NO: 2)) in assay buffer was added, the microtiter plate centrifuged at 1000 rpm for 1 min and the assay mixtures incubated for 15 min at ambient temperature. The relative amount of menin·FITC-MBM1 complex present in an assay mixture is determined by measuring the fluorescence polarization (FP) of the FITC label with a BMG Pherastar plate reader (ex. 485 nm/em. 520 nm) at ambient temperature. The final concentrations of reagents in the binding assay are 100 nM menin, 5 nM FITC-MBM1 peptide and 0.625% DMSO in assay buffer. Dose-response titrations of test compounds are conducted using an 11 point, three-fold serial dilution scheme, starting at 31 μM.
Compound potencies were determined by first calculating % inhibition at each compound concentration according to equation 1: % inhibition=((HC−LC)−(FP^compound−LC))/(HC−LC))*100 (Eqn 1)
Where LC and HC are the FP values of the assay in the presence or absence of a saturating concentration of a compound that competes with FITC-MBM1 for binding to menin, and FP^compound is the measured FP value in the presence of the test compound. HC and LC FP values represent an average of at least 16 replicates per plate. […] 2) Proliferation Assay

[1] = Homo sapiens, MV4-11, MV-4-11, averaged values, read-out: Spheroid assay MV-4-11 (IC50 (μM))
[2] = Homo sapiens, MOLM-14, MOLM14, averaged values, read-out: Spheroid assay MOLM14 (IC50 (μM))
[3] = K562 control cell line, averaged values, read-out: Spheroid assay K562 (IC50 (μM))
[4] = averaged values over all measurements, read-out: Menin FP assay (IC50 (μM))
[5] = MV-4-11 (MLL-AF4), 8 d, absolute IC50 from AUC of confluence, individual measurements (not averaged), read-out: (2) Spheroid assay MV-4-11 (IC50 (μM))
[6] = 192 h, K562 (MLL wildtype control), 8 d, absolute IC50 from AUC of confluence, individual measurements (not averaged), read-out: (2) Spheroid assay K562 (IC50 (μM))
[7] = MOLM14 (MLL-AF9), 8 d, absolute IC50 from AUC of confluence, individual measurements (not averaged), read-out: (2) Spheroid assay MOLM14 (IC50 (μM))
[8] = 100 nM menin, 5 nM FITC-MBM1 peptide, individual measurements (not averaged), read-out: (1) Menin FP assay (IC50 (μM))

Compound | IC50 (MV-4-11; [1]) [µM] | IC50 (MOLM14; [2]) [µM] | IC50 (K562; [3]) [µM] | IC50 (menin; [4]) [µM] | IC50 (MV-4-11; [5]) | IC50 (K562; [6]) [µM] | IC50 (MOLM14; [7]) | IC50 (menin; [8]) [µM] | IC50 (MOLM14; Homo sapiens, MOLM-14, 192 h, MOLM14 (MLL-AF9), 8 d, absolute IC50 from AUC of confluence, individual measurements (not averaged), read-out: (2) Spheroid assay MOLM14 (IC50 (μM))) [µM] | IC50 (KG1) [µM]
CC(C)[C@@H](c1cn[nH]c1)N1CC2(CCN(c3ncnc4sc(CC(F)(F)F)cc34)C2)C1 [Compound 245] | 0.32 | 2 |  |  |  |  |  |  |  | > 15
FC(F)(F)Cc1cc2c(N3CCC[C@@]4(CCN(Cc5ccccc5)C4)C3)ncnc2s1 (single isomer, unassigned) [Compound 21b] | 4.2 | 4.6 | > 15 | 0.13 |  |  |  |  |  | 
CC(Cc1ccc(F)cc1)N1CC2(CCN(c3ncnc4sc(CC(F)(F)F)cc34)C2)C1 (centres unmarked) [Compound 84] | 0.58 | 1.5 |  |  |  |  |  |  |  | > 15
O=C([C@@H]1CC2(CC2)CN1)N1CC2(CCN(c3ncnc4sc(CC(F)(F)F)cc34)C2)C1 [Compound 86] | 2.6 | 11.3 | > 15 | 0.092 |  |  |  |  |  | 
FC(F)(F)CCN1CC2(CCN(c3ncnc4sc(CC(F)(F)F)cc34)C2)C1 [Compound 2] | 4.9 | 14.6 | > 15 | 0.39 |  |  |  |  |  | 
FC(F)(F)Cc1cc2c(N3CC[C@@]4(CCN(Cc5ccccc5)C4)C3)ncnc2s1 (single isomer, unassigned) [Compound 20a] | 0.96 | 5 | > 15 | 0.076 |  |  |  |  |  | 
FC(F)(F)Cc1cc2c(N3CCC[C@]4(CCN(Cc5ccccc5)C4)C3)ncnc2s1 (single isomer, unassigned) [Compound 21a] | 6.9 | 12.1 | > 15 | 0.49 |  |  |  |  |  | 
FC(F)(F)Cc1cc2c(N3CC4(CC(OCc5ccccc5)C4)C3)ncnc2s1 [Compound 26] | 10.4 | > 15 |  | 0.16 |  |  |  |  |  | 
CC(C)[C@@H](c1cnn(C)c1)N1CC[C@]2(CCN(c3ncnc4sc(CC(F)(F)F)cc34)C2)C1 (single isomer, unassigned) [Compound 189] | 0.92 |  |  |  |  |  |  |  |  | > 15
CC(C)CN1CC[C@@]2(CCN(c3ncnc4sc(CC(F)(F)F)cc34)C2)C1 [Compound 184] | 0.97 |  |  |  |  |  |  |  |  | > 15
OCCn1cccc1CN1CC2(CCN(c3ncnc4sc(CC(F)(F)F)cc34)C2)C1 [Compound 24] | 9.1 | > 15 |  | 0.49 |  |  |  |  |  | 
FC(F)(F)Cc1cc2c(N3CCC4(CN(Cc5cnccn5)C4)C3)ncnc2s1 [Compound 12] | > 15 | > 15 | > 15 | 0.63 |  |  |  |  |  | 
FC(F)(F)Cc1cc2c(N3CCC4(CCN(Cc5ccccc5)C4)CC3)ncnc2s1 [Compound 3] | 3.8 | 5.6 | ~15 | 0.1 |  |  |  |  |  | 

Continued, in another order:

IC50 (MV-4-11; [1]) [µM] | IC50 (MOLM14; [2]) [µM] | IC50 (K562; [3]) [µM] | IC50 (menin; [4]) [µM] | IC50 (MV-4-11; [5]) | IC50 (K562; [6]) [µM] | IC50 (MOLM14; [7]) | IC50 (menin; [8]) [µM] | IC50 (MOLM14; Homo sapiens, MOLM-14, 192 h, MOLM14 (MLL-AF9), 8 d, absolute IC50 from AUC of confluence, individual measurements (not averaged), read-out: (2) Spheroid assay MOLM14 (IC50 (μM))) [µM] | Compound | IC50 (KG1) [µM]
14 | > 15 | > 15 | 0.57 |  |  |  |  |  | FC(F)(F)Cc1cc2c(N3CCC4(CN(Cc5ccnc(Cl)n5)C4)C3)ncnc2s1 [Compound 15] | 
0.44 | 1.3 |  |  |  |  |  |  |  | CC(C)[C@@H](N1CC2(CCN(c3ncnc4sc(CC(F)(F)F)cc34)C2)C1)C1(F)CN(C)C1 [Compound 304a] | > 15
3.9 | 7.7 | > 15 | 0.14 |  |  |  |  |  | FC(F)(F)Cc1cc2c(N3CCCC4(CCN(Cc5ccccc5)C4)C3)ncnc2s1 (racemic) [Compound 18] | 
 |  |  |  | 4.1 µM and 0.63 µM and 0.58 µM and 0.68 µM and 0.52 µM | > 15 | 8 µM and 2.8 µM and 4.6 µM | 0.048 |  | O=C([C@@H]1CC2(CC2)CN1)N1CC2(C1)CN(c1ncnc3sc(CC(F)(F)F)cc13)C2 [Compound 87] | 
3.7 | 4.6 | > 15 | 0.056 |  |  |  |  |  | FC(F)(F)Cc1cc2c(N3CCC4(CN(Cc5ccccc5)C4)C3)ncnc2s1 [Compound 1] | 
0.67 | 3.4 | > 15 |  |  |  |  |  |  | C[C@H]1CN[C@H](C(=O)N2CC3(C2)CN(c2ncnc4sc(CC(F)(F)F)cc24)C3)C1 [Compound 105] | 
2.4 | 10.1 | > 15 | 0.24 |  |  |  |  |  | FC(F)(F)Cc1cc2c(N3CCC4(CN(Cc5ccc6nccn6c5)C4)C3)ncnc2s1 [Compound 6] | 
0.73 | 4.2 | > 15 | 0.042 |  |  |  |  |  | CC(C)CN1CC2(CCN(c3ncnc4sc(CC(F)(F)F)cc34)C2)C1 [Compound 13] | 
5.1 | 12.4 |  | 0.14 |  |  |  |  |  | C[C@H](c1cnn(C)c1)N1CC2(CCN(c3ncnc4sc(CC(F)(F)F)cc34)C2)C1 [Compound 198] | 
0.77 |  |  |  |  |  |  |  |  | CC(CN1CC2(CCN(c3ncnc4sc(CC(F)(F)F)cc34)C2)C1)c1ccc(F)cc1 (centres unmarked) [Compound 317] | > 15
0.55 | 2 | > 15 | 0.069 |  |  |  |  |  | FC(F)(F)Cc1cc2c(N3CCC4(CN(CC5CC6(CCC6)C5)C4)C3)ncnc2s1 [Compound 22] | 
6.4 | 30.6 | > 15 | 0.67 |  |  |  |  |  | FC(F)(F)Cc1cc2c(N3CCC4(CN(Cc5cn6ccccc6n5)C4)C3)ncnc2s1 [Compound 5] | 
 |  |  |  | 4.7 µM and > 15 µM | > 15 | 8.7 µM | 0.134 | 9.3 | FC(F)(F)Cc1cc2c(N3CC4(CCN(Cc5ccccc5)C4)C3)ncnc2s1 [Compound 16] | 
